Laboratory results reported in PMC6825211 (Nature Communications, 2019).

Key:
MST2 = MST2 (Homo sapiens, UniProt Q13188); assay: Biochemical kinase dose response (Suppl. Fig. 2, 5); details: concentrations up to 10 μM
MST family members = tested on: MST family members; parameters: method as in PMID 22037378; details: cited from earlier work
MST1 [1] = biological target: T1, MST1 (Rattus norvegicus, UniProt A0A8I6A0F8); assay: CETSA assay; type: cell-based; details: 5 μM, 2 h, INS-1E, 55 °C
T1 construct: endogenous in cells; host or cells: INS-1E (rat beta-cell line)
T1 sequence (A0A8I6A0F8 1-487): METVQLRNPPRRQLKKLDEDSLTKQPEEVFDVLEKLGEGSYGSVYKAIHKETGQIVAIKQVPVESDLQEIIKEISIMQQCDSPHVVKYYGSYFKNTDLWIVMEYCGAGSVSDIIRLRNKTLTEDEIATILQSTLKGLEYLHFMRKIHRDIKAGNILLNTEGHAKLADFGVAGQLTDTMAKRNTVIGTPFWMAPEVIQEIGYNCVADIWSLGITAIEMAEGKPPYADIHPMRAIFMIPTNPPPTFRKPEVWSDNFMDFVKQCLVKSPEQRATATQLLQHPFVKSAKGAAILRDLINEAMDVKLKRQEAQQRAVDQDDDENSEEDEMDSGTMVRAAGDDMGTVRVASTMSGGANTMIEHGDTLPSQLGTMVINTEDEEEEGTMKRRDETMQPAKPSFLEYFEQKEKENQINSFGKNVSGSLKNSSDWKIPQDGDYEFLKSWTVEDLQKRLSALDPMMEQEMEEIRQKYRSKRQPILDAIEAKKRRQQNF
Description: Thereafter, cells were pelleted at 200 g for 4 min and resuspended in PBS supplemented with phosphatase and protease inhibitor cocktail at the cell density of 3 Mill./100 µl. Each cell suspension was distributed into five 0.2-ml PCR tubes with 100 µl of cell suspension per tube. PCR tubes were heated at their designated temperature (43–55 °C) on a thermal cycler for 3 min, incubated at room temperature for 3 min, and snap-frozen in liquid nitrogen. Cell lysates were prepared by freezing–thawing the samples in liquid nitrogen twice, and soluble MST1 was detected by western blot analysis.

MST1 [2] = biological target: T2, MST1 (Homo sapiens, UniProt Q13043); assay: Biochemical kinase dose response (Suppl. Fig. 5); details: concentrations up to 10 μM
T2 sequence (Q13043 1-487): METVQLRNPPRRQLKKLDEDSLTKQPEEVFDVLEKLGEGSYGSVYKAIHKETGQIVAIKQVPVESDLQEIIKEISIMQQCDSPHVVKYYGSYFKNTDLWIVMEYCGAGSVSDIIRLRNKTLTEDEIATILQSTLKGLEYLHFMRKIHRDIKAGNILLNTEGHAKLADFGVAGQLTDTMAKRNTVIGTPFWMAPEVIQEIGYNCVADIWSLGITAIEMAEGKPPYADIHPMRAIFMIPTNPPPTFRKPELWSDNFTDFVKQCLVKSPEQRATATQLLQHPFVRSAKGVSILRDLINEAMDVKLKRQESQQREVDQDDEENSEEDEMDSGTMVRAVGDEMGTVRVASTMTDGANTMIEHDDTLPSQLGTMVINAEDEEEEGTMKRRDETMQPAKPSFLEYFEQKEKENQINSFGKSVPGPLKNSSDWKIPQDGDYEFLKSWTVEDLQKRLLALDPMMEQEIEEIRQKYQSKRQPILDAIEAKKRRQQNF

INS-1E cells = assay: Western blot of pMST1, caspase-3/PARP cleavage, PDX1, BIM under diabetogenic conditions; type: cell-based, rat; details: 10 μM, 24 h
Description: . pThr183), caspase-3 and PARP cleavage, PDX1, tubulin, and actin were analyzed by western blotting. Representative Western blots and pooled quantitative densitometry analysis are shown from three independent cell line experiments (n = 3). […]; all by Student’s t tests.
. pThr183), caspase-3 and PARP cleavage, and BIM and actin were analyzed by western blotting. Representative Western blots (b) and pooled quantitative densitometry analysis (c) are shown from 3–6 independent culture dishes (n = 3–6). […]; all by Student’s t tests.
Human islets were isolated from eight pancreases of nondiabetic organ donors at PRODO Labs and at Lille University and cultured on extracellular matrix-coated dishes (Novamed, Jerusalem, Israel)[62] or on Biocoat Collagen I coated dishes (#356400, Corning, ME, USA). […] The clonal rat β-cell line INS-1E was kindly provided by Dr. Claes Wollheim, Geneva & Lund University. Human islets were cultured in complete CMRL-1066 (Invitrogen) medium at 5.5 mM glucose, mouse islets and INS-1E cells at complete RPMI-1640 medium at 11.1 mM glucose. […] . Palmitic acid (Sigma) was dissolved at 10 mmol/l in RPMI-1640 medium containing 11% fatty acid–free bovine serum albumin (BSA) (Sigma) under an N2-atmosphere and added to the culture at 0.5 mM[64]. […] . Isolated human islets or INS-1E cells were infected with adenovirus carrying LacZ as control or MST1 or LATS2 (all Vector Biolabs), at a multiplicity of infection of 100 (human islets) or 20 (INS-1E) for 4 h[11]. Adenovirus was subsequently washed off with PBS and replaced by fresh medium with 10% FBS and the respective analysis performed after 48 h post infection.

MST1–LATS2 signaling [3] = assay: LATS-BS in vitro luciferase assay (MST1/LATS2 overexpression)
Description: Therefore a LATS-BS construct has been generated with fusion of YAP fragment and 14-3-3 with N-terminal and C-terminal firefly luciferase fragments (N-luc and C-luc), respectively that assesses LATS kinase activity by measuring the interaction between pS127-YAP and 14-3-3[35] in a MST1–LATS2-phosphorylation-dependent manner (Fig. 4a).
As internal transfection control, pRL-Renilla luciferase control reporter vector (Promega) was co-transfected into each sample. […] Luciferase signal was calculated based on the ratio of luciferase activity of LATS-BS to control reporter vector.

MST1–LATS2 signaling [4] = assay: Western blot of YAP-S127 phosphorylation (MST1/LATS2 overexpression); details: 10 μM, last 24 h
[5] = tested on: mouse model of liver and intestine injury; parameters: method as in PMID 27535619; details: cited from earlier work
MST1 [6] = biological target: T2, MST1; assay: LanthaScreen Eu kinase binding assay (HTS and dose response); parameters: purchased ThermoFisher; details: 1 μM; positive control
Description: A total of 39 hits were selected for 9-point dose response confirmation in triplicate, starting at 1 μM followed by 1:5 serial dilution.
Compounds in 1000× DMSO stock solution were dispensed by using Echo555 liquid dispensing system (Labcyte, CA) to 1536-well microplate (Corning, NY). Kinase buffer A (ThermoFisher, MA) was prepared and added to each well. […] Each reagent was added to the microplate in equal volume.

Sequence of MST2 (Q13188 whole entry, species assumed): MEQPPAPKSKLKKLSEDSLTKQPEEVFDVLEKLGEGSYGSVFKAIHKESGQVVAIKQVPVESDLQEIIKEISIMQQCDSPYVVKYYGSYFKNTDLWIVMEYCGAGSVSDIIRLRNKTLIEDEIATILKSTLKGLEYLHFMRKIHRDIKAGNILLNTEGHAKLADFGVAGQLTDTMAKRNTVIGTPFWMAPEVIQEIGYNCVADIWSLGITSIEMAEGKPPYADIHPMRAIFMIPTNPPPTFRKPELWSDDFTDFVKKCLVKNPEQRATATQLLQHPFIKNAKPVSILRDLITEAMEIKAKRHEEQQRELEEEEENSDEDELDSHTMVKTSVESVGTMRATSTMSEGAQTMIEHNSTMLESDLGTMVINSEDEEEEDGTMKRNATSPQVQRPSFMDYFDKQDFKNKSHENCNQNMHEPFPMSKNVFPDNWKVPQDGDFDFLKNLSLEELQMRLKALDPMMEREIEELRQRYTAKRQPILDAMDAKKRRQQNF

## C=CC(=O)Nc1cc2c(Nc3ccc(F)c(Cl)c3)ncnc2cc1OCCCN1CCOCC1 [canertinib]
MST2
  inhibition of MST2: no appreciable inhibition
MST family members
  activity on MST family members: without MST family inhibitory activity
MST1 [1]
  thermal stabilization of MST1 in intact cells: degradation occurred at the same condition
MST1 [2]
  inhibition of MST1: no appreciable inhibition
INS-1E cells
  cleaved caspase-3, cleaved PARP, and BIM under basal conditions: significant stimulatory effect
INS-1E cells; HG/Pal
  mitochondrial BIM induction under diabetic conditions: but not the EGFR inhibitor canertinib significantly reduced
  stress-induced MST1 activation and caspase-3 and PARP cleavage: ineffective
MST1–LATS2 signaling [3]; 10 μM, last 24 h
  MST1/LATS2-induced luciferase activity (LATS-BS): had no inhibitory effect
MST1–LATS2 signaling [3]; L2/Mst1 overexpression + 10 μM compound, mean of six dishes
  Firefly/Renilla x1000 (MEAN): 27.5257
MST1–LATS2 signaling [4]
  MST1/LATS2-induced YAP-S127 phosphorylation: had no inhibitory effect

## CN1C(=O)c2sccc2N(C)c2nc(Nc3ccc(S(N)(=O)=O)cc3)ncc21 [XMU-MP-1]
[5]
  effect in mouse model of liver and intestine injury: promotes tissue repair and regeneration

## CN[C@@H]1C[C@H]2O[C@@](C)([C@@H]1OC)n1c3ccccc3c3c4c(c5c6ccccc6n2c5c31)C(=O)NC4 [staurosporine]
MST1 [6]
  inhibition at 1 µM: 100%
